Test results as given in publication PMC4965013, “Open Source Drug Discovery with the Malaria Box Compound Collection for Neglected Diseases and Beyond” (PLoS Pathogens, 2016).

Assays:
[1] = test system: P. falciparum 3D7 trophozoites; assay: Metabolomic fingerprint profiling LC-MS; type: cell-based, Plasmodium falciparum; set-up: UDP-D-glucose / ADP-D-glucose: unit not given here; conditions: for Acetyllysine / N-acetyl-L-ornithine / N-carbamoyl-L-aspartate / NADPH / dAMP / dCMP / dTDP / dTMP / dTTP / dihydroorotate / orotate / DLH / DLS/SDL/SID / PD / PEE / PVNF / 3-phosphoglycerate / ADP-D-glucose / ATP / CDP / D-sedoheptulose-1/7-phosphate / FAD / GMP / NAD+ / NADP+ / Octoluse Bisphosphate / Pyroglutamic acid / UDP-D-glucose / UDP-D-glucuronate / UDP-N-acetyl-glucosamine / UDP / UMP / UTP / a-ketoglutarate / citrate/isocitrate / cytidine / dATP / dGMP/AMP / fumarate / glucose-1/6-phosphate / glycerate / guanine / guanosine / hypoxanthine / indole / inosine / nicotinate / ornithine / phosphoenolpyruvate / pyruvate / ribose-phosphate / sarcosine/alanine / sn-glycerol-3-phosphate / succinate/methylmalonic acid / uridine / xanthosine: S2 Table Metabolomics; for Acetyllysine: metabolite Acetyllysine; for N-acetyl-L-ornithine: metabolite N-acetyl-L-ornithine; for N-carbamoyl-L-aspartate: metabolite N-carbamoyl-L-aspartate; for NADPH: metabolite NADPH; for dAMP: metabolite dAMP; for dCMP: metabolite dCMP; for dTDP: metabolite dTDP; for dTMP: metabolite dTMP; for dTTP: metabolite dTTP; for dihydroorotate: metabolite dihydroorotate; for orotate: metabolite orotate; for DLH: peptide DLH; for DLS/SDL/SID: peptide DLS/SDL/SID; for PD: peptide PD; for PEE: peptide PEE; for PVNF: peptide PVNF; for 3-phosphoglycerate: metabolite 3-phosphoglycerate; for ADP-D-glucose: metabolite ADP-D-glucose; for ATP: metabolite ATP; for CDP: metabolite CDP; for CDP / D-sedoheptulose-1/7-phosphate / GMP / Octoluse Bisphosphate / UDP / UMP / UTP / citrate/isocitrate / dGMP/AMP / fumarate / glucose-1/6-phosphate / glycerate / guanine / guanosine / inosine / pyruvate / sarcosine/alanine / succinate/methylmalonic acid / uridine / xanthosine: change in metabolite level after compound treatment; for D-sedoheptulose-1/7-phosphate: metabolite D-sedoheptulose-1/7-phosphate; for FAD: metabolite FAD; for GMP: metabolite GMP; for NAD+: metabolite NAD+; for NADP+: metabolite NADP+; for Octoluse Bisphosphate: metabolite Octoluse Bisphosphate; for Pyroglutamic acid: metabolite Pyroglutamic acid; for UDP-D-glucose: metabolite UDP-D-glucose; for UDP-D-glucuronate: metabolite UDP-D-glucuronate; for UDP-N-acetyl-glucosamine: metabolite UDP-N-acetyl-glucosamine; for UDP: metabolite UDP; for UMP: metabolite UMP; for UTP: metabolite UTP; for a-ketoglutarate: metabolite a-ketoglutarate; for citrate/isocitrate: metabolite citrate/isocitrate; for cytidine: metabolite cytidine; for dATP: metabolite dATP; for dGMP/AMP: metabolite dGMP/AMP; for fumarate: metabolite fumarate; for glucose-1/6-phosphate: metabolite glucose-1/6-phosphate; for glycerate: metabolite glycerate; for guanine: metabolite guanine; for guanosine: metabolite guanosine; for hypoxanthine: metabolite hypoxanthine; for indole: metabolite indole; for inosine: metabolite inosine; for 2_3-Diphosphoglyceric acid / 4-phosphopantothenate / 6-phospho-D-gluconate / FMN / IMP / Pyrophosphate / Sedoheptoluse bisphosphate / cyclic-AMP / glutathione disulfide / lactate / myo-inositol: metabolite level change after treatment; for nicotinate: metabolite nicotinate; for ornithine: metabolite ornithine; for phosphoenolpyruvate: metabolite phosphoenolpyruvate; for pyruvate: metabolite pyruvate; for ribose-phosphate: metabolite ribose-phosphate; for sarcosine/alanine: metabolite sarcosine/alanine; for sn-glycerol-3-phosphate: metabolite sn-glycerol-3-phosphate; for succinate/methylmalonic acid: metabolite succinate/methylmalonic acid; for uridine: metabolite uridine; for xanthosine: metabolite xanthosine
P. falciparum = assay: EC50 listed in S2 Table Metabolomics (used to set the concentration tested); type: cell-based; conditions: Plasmodium falciparum; EC50 used for Factor_XEC50 in metabolomics; read-out: EC50_nM

COc1cccc(NC(=O)[C@H](C(C)C)n2c(=O)[nH]c3ccccc3c2=O)c1 [MMV665878] showed an Acetyllysine [1] of -3.834, a N-acetyl-L-ornithine [1] of -2.277 and a N-carbamoyl-L-aspartate [1] of -2.026. It also gave an NADPH [1] of -0.665, a dAMP [1] of 2.607 and a dCMP [1] of 1.538. It also gave a dTDP [1] of 2.818, a dTMP [1] of 4.246 and a dTTP [1] of 1.03. The dihydroorotate [1] was -1.926, the orotate [1] was 0.2146 and the DLH [1] was -4.819. The DLS/SDL/SID [1] was -3.927, the PD [1] was -1.32 and the PEE [1] was -2.783. For the same molecule, the PVNF [1] was -5.1424, the 3-phosphoglycerate [1] was -0.5747 and the ADP-D-glucose [1] was -0.6055. The ATP [1] was -2.891, the CDP [1] was 0.1584 and the D-sedoheptulose-1/7-phosphate [1] was -0.5795. For the same molecule, the FAD [1] was -1.328, the GMP [1] was -2.538 and the “NAD+” value [1] was 0.9896. The “NADP+” value [1] was -0.2932, the “Octoluse Bisphosphate” value [1] was -2.487 and the Pyroglutamic acid [1] was -0.4358. The UDP-D-glucose [1] was -0.03487, the UDP-D-glucuronate [1] was -0.6105 and the UDP-N-acetyl-glucosamine [1] was 0.07778. The UDP [1] was -0.1367, the UMP [1] was 0.1216 and the UTP [1] was -1.546. It also gave an a-ketoglutarate [1] of -0.5207, a citrate/isocitrate [1] of -1.159 and a cytidine [1] of 0.1724. For the same molecule, the dATP [1] was -1.5606, the dGMP/AMP [1] was -1.273 and the fumarate [1] was 0.3725. It also gave a glucose-1/6-phosphate [1] of -0.9191, a glycerate [1] of 0.3692 and a guanine [1] of -0.09985. It also gave a guanosine [1] of -0.2889, a hypoxanthine [1] of -0.3925 and an indole [1] of -0.3292. For the same molecule, the inosine [1] was -0.04266, the 2_3-Diphosphoglyceric acid [1] was -1.256 and the 4-phosphopantothenate [1] was -0.4545. It also gave a 6-phospho-D-gluconate [1] of -0.4297, an FMN [1] of -0.3548 and an IMP [1] of -0.5176. For the same molecule, the Pyrophosphate [1] was -1.335, the Sedoheptoluse bisphosphate [1] was -0.9263 and the cyclic-AMP [1] was -1.127. For the same molecule, the glutathione disulfide [1] was -0.2446, the lactate [1] was -1.397 and the myo-inositol [1] was -0.3766. The nicotinate [1] was 0.2929, the ornithine [1] was 0.191 and the phosphoenolpyruvate [1] was -0.242. It also gave a pyruvate [1] of -1.851, a ribose-phosphate [1] of -0.6091 and a sarcosine/alanine [1] of -1.666. The sn-glycerol-3-phosphate [1] was 0.02823, the succinate/methylmalonic acid [1] was 0.3592 and the uridine [1] was 0.5173. It also gave a xanthosine [1] of -1.769 and an EC50 (P. falciparum) of 139 nM.
Work on Cc1ccc(N2C3c4ccccc4N(S(=O)(=O)c4ccc(C)cc4)C2c2ccccc2N3S(=O)(=O)c2ccc(C)cc2)cc1 [MMV007160] yielded an Acetyllysine [1] of 0.3548, a N-acetyl-L-ornithine [1] of 0.3325 and a N-carbamoyl-L-aspartate [1] of 1.35. It also gave an NADPH [1] of 0.1135, a dAMP [1] of 0.01944 and a dCMP [1] of 0.09265. It also gave a dTDP [1] of 0.2488, a dTMP [1] of 0.1305 and a dTTP [1] of 0.2593. It also gave a dihydroorotate [1] of 1.082, an orotate [1] of 0.8469 and a DLH [1] of 0.1334. It also gave a DLS/SDL/SID [1] of 0.2278, a PD [1] of -0.1641 and a PEE [1] of -0.1118. For the same molecule, the PVNF [1] was 0.2167, the 3-phosphoglycerate [1] was 0.1652 and the ADP-D-glucose [1] was -0.01319. It also gave an ATP [1] of 0.3343, a CDP [1] of 0.1565 and a D-sedoheptulose-1/7-phosphate [1] of 0.1973. For the same molecule, the FAD [1] was -0.002001, the GMP [1] was 0.2649 and the “NAD+” value [1] was 0. For the same molecule, the “NADP+” value [1] was 0.07922, the “Octoluse Bisphosphate” value [1] was 0.295 and the Pyroglutamic acid [1] was 0.3777. For the same molecule, the UDP-D-glucose [1] was 0.05012, the UDP-D-glucuronate [1] was 0.1524 and the UDP-N-acetyl-glucosamine [1] was -0.001304. For the same molecule, the UDP [1] was 0.1082, the UMP [1] was 0.008735 and the UTP [1] was 0.1487. For the same molecule, the a-ketoglutarate [1] was 0.5892, the citrate/isocitrate [1] was 0.4078 and the cytidine [1] was 0.08232. The dATP [1] was 0.1879, the dGMP/AMP [1] was 0.0905 and the fumarate [1] was 0.3202. For the same molecule, the glucose-1/6-phosphate [1] was 0.8192, the glycerate [1] was 0.7953 and the guanine [1] was 0.3293. The guanosine [1] was 0.8873, the hypoxanthine [1] was 0.7164 and the indole [1] was 0.6321. It also gave an inosine [1] of 0.395, a 2_3-Diphosphoglyceric acid [1] of 0.1996 and a 4-phosphopantothenate [1] of 0.1099. The 6-phospho-D-gluconate [1] was 0.1949, the FMN [1] was 0.06109 and the IMP [1] was -0.03231. For the same molecule, the Pyrophosphate [1] was 0.1406, the Sedoheptoluse bisphosphate [1] was 0.1591 and the cyclic-AMP [1] was 0.1479. The glutathione disulfide [1] was 0.15, the lactate [1] was 0.5915 and the myo-inositol [1] was 0.754. For the same molecule, the nicotinate [1] was 0.5248, the ornithine [1] was 0.05899 and the phosphoenolpyruvate [1] was 0.1975. For the same molecule, the pyruvate [1] was -0.02541, the ribose-phosphate [1] was -0.3937 and the sarcosine/alanine [1] was 0.2516. The sn-glycerol-3-phosphate [1] was -0.6224, the succinate/methylmalonic acid [1] was 0.03261 and the uridine [1] was 0.5939. For the same molecule, the xanthosine [1] was 0.5985 and the EC50 (P. falciparum) was 24.8 nM.
With COc1ccc(C(=O)Nc2nonc2-c2ccc(OC)c(OC)c2)cc1Cl [MMV011567] the Acetyllysine [1] was -2.7765, the N-acetyl-L-ornithine [1] was -1.047 and the N-carbamoyl-L-aspartate [1] was -1.546. The NADPH [1] was -0.479, the dAMP [1] was 2.616 and the dCMP [1] was 7.615. The dTDP [1] was 4.376, the dTMP [1] was 5.592 and the dTTP [1] was 4.192. It also gave a dihydroorotate [1] of -1.311, an orotate [1] of 1.606 and a DLH [1] of -3.738. It also gave a DLS/SDL/SID [1] of -3.085, a PD [1] of -0.447 and a PEE [1] of -2.659. The PVNF [1] was -4.149, the 3-phosphoglycerate [1] was -0.4312 and the ADP-D-glucose [1] was -0.3179. It also gave an ATP [1] of 0.7262, a CDP [1] of 1.853 and a D-sedoheptulose-1/7-phosphate [1] of -0.5728. For the same molecule, the FAD [1] was -0.6926, the GMP [1] was -3.051 and the “NAD+” value [1] was -0.6365. The “NADP+” value [1] was -0.4288, the “Octoluse Bisphosphate” value [1] was -1.352 and the Pyroglutamic acid [1] was 0.8228. It also gave a UDP-D-glucose [1] of 0.2841, a UDP-D-glucuronate [1] of 0.3235 and a UDP-N-acetyl-glucosamine [1] of 0.4364. It also gave a UDP [1] of 1.166, a UMP [1] of 0.1995 and a UTP [1] of 0.7659. The a-ketoglutarate [1] was -0.1289, the citrate/isocitrate [1] was 1.575 and the cytidine [1] was 0.6834. The dATP [1] was 1.434, the dGMP/AMP [1] was -0.9068 and the fumarate [1] was 0.5595. The glucose-1/6-phosphate [1] was -0.4437, the glycerate [1] was -0.2059 and the guanine [1] was 1.129. It also gave a guanosine [1] of 0.9628, a hypoxanthine [1] of 0.8431 and an indole [1] of 0.1357. For the same molecule, the inosine [1] was -0.4655, the 2_3-Diphosphoglyceric acid [1] was -0.4768 and the 4-phosphopantothenate [1] was 0.1624. For the same molecule, the 6-phospho-D-gluconate [1] was 0.2149, the FMN [1] was 0.2743 and the IMP [1] was 0.2415. The Pyrophosphate [1] was -0.9055, the Sedoheptoluse bisphosphate [1] was -0.2891 and the cyclic-AMP [1] was 0.1677. The glutathione disulfide [1] was 0.2649, the lactate [1] was -0.6986 and the myo-inositol [1] was -1.672. The nicotinate [1] was 1.088, the ornithine [1] was 0.1615 and the phosphoenolpyruvate [1] was -0.2076. It also gave a pyruvate [1] of -1.296, a ribose-phosphate [1] of -0.6006 and a sarcosine/alanine [1] of -1.205. It also gave a sn-glycerol-3-phosphate [1] of 0.6609, a succinate/methylmalonic acid [1] of -0.1426 and a uridine [1] of 0.07808. For the same molecule, the xanthosine [1] was 0.9674 and the EC50 (P. falciparum) was 516 nM.
